≈ marks a conversion by molar mass, not a printed value. Calls of active or inactive are those of the source. The rule behind the calls is not given here.
Legend:
BJ = test: Cytotoxicity against human BJ cells by MTT assay; assay type: functional
MRC5 = test: Cytotoxicity against human MRC5 cells by MTT assay; assay type: functional
Adenosine kinase [1] = biological target: T1, Adenosine kinase (Homo sapiens, UniProt P55263); test: Activity of human ADK expressed in Escherichia coli BL21(DE3) cells assessed as compound phosphorylation by measuring conversion of compound to 5'-phosphate; design: concentration or dose not given beside the values
Target sequence in this assay (P55263 2-362 limits assumed): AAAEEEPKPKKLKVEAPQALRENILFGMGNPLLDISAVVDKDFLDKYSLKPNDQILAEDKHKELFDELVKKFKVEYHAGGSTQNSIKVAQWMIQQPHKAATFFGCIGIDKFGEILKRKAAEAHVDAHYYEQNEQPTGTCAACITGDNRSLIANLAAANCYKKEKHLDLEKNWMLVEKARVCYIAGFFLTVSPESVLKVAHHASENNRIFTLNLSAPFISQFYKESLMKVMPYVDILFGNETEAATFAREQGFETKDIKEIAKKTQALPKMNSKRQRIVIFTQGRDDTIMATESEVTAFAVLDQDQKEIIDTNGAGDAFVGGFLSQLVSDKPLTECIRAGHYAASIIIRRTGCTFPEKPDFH

Adenosine kinase [2] = biological target: T1, Adenosine kinase; test: Inhibition of human ADK expressed in Escherichia coli BL21(DE3) cells using [3H]adenosine by liquid scintillation counting method
Target sequence in this assay (P55263 whole entry): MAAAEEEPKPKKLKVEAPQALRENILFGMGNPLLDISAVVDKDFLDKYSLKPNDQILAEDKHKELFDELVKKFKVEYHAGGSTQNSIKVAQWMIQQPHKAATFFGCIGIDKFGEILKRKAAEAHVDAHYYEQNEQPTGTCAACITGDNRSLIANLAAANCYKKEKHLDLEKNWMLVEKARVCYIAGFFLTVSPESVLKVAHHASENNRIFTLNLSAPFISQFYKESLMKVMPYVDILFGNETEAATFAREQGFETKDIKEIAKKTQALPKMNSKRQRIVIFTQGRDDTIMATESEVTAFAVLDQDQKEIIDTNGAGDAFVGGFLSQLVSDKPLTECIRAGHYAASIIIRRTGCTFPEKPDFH

[3] = Inhibition of Mycobacterium tuberculosis ADK expressed in Escherichia coli BL21(DE3) cells using [3H]adenosine by liquid scintillation counting method
[4] = test system: Mycobacterium tuberculosis; test: Antimycobacterial activity against Mycobacterium tuberculosis H37Rv My 331/88 assessed as microbial growth inhibition incubated for 14 days; assay type: functional; details: H37Rv My 331/88, 336 h
[5] = test system: Mycobacterium tuberculosis; test: Activity of Mycobacterium tuberculosis ADK expressed in Escherichia coli BL21(DE3) cells assessed as compound phosphorylation by measuring conversion of compound to 5'-phosphate

Row | SMILES | CC50 (BJ) [µM] | CC50 (MRC5) [µM] | Activity (Adenosine kinase [1]) [%] | IC50 (Adenosine kinase [2]) [µM] | IC50 [3] [µM] | MIC [4] [µM] | Activity [5]
1 | Nc1ncnc2c1c(-c1cn[nH]c1)cn2[C@@H]1O[C@H](CO)[C@@H](O)[C@H]1O | 48.9 | 71.2 | 9 | > 10 | > 5 | 125 (≈ 41.5 µg/mL) | inactive
2 | CC(C)Oc1ccc(-c2cn([C@@H]3O[C@H](CO)[C@@H](O)[C@H]3O)c3ncnc(N)c23)cc1 | 59.9 | 50.2 |  | > 10 | 13.1 | 32 (≈ 12.8 µg/mL) | inactive
3 | CC(C)(C)c1ccc(-c2cn([C@@H]3O[C@H](CO)[C@@H](O)[C@H]3O)c3ncnc(N)c23)cc1 | > 100 | 96.3 |  | > 20 | > 10 | 62.5 (≈ 24.9 µg/mL) | inactive
4 | Nc1ncnc2c1c(-c1cc3ccccc3c3ccccc13)cn2[C@@H]1O[C@H](CO)[C@@H](O)[C@H]1O | > 100 | 66 |  | > 10 | > 10 | 32 (≈ 14.2 µg/mL) | inactive
5 | Nc1ncnc2c1c(-c1ccc(-c3ccccc3)cc1)cn2[C@@H]1O[C@H](CO)[C@@H](O)[C@H]1O | 40.6 | 93.7 |  | > 20 | 7.67 | 4 (≈ 1.67 µg/mL) | inactive
6 | Nc1ncnc2c1c(-c1cc[nH]c1)cn2[C@@H]1O[C@H](CO)[C@@H](O)[C@H]1O | 10.1 | 5.05 | 20 | 4.5 | > 10 | 62.5 (≈ 20.7 µg/mL) | inactive
7 | Nc1ncnc2c1c(-c1ccoc1)cn2[C@@H]1O[C@H](CO)[C@@H](O)[C@H]1O | 91.5 | 67.9 | 9 |  | > 10 | 16 (≈ 5.32 µg/mL) | inactive
8 | Nc1ncnc2c1c(-c1cccc3c1oc1ccccc13)cn2[C@@H]1O[C@H](CO)[C@@H](O)[C@H]1O | > 100 | 100 |  | > 10 | 0.6 | 4 (≈ 1.73 µg/mL) | inactive
9 | Nc1ncnc2c1c(-c1ccc3c(c1)OCO3)cn2[C@@H]1O[C@H](CO)[C@@H](O)[C@H]1O | 15.5 | 46 |  | > 10 | > 10 | 8 (≈ 3.09 µg/mL) | inactive
10 | Nc1ncnc2c1c(-c1cc3ccccc3o1)cn2[C@@H]1O[C@H](CO)[C@@H](O)[C@H]1O | 21.2 | 35.1 |  |  | 1.8 | 16 (≈ 6.12 µg/mL) | inactive
11 | Nc1ncnc2c1c(-c1ccc(-c3ccc4ccccc4c3)cc1)cn2[C@@H]1O[C@H](CO)[C@@H](O)[C@H]1O | 0.12 | 64.2 |  | > 20 | > 10 | 62.5 (≈ 29.3 µg/mL) | inactive
12 | Nc1ncnc2c1c(-c1cccc3c1Sc1ccccc1S3)cn2[C@@H]1O[C@H](CO)[C@@H](O)[C@H]1O | > 100 | 68.5 |  | > 10 | 2.06 | 62.5 (≈ 30 µg/mL) | inactive
13 | Nc1ncnc2c1c(-c1ccc(C(F)(F)F)cc1)cn2[C@@H]1O[C@H](CO)[C@@H](O)[C@H]1O | 62 | 78.8 |  | > 10 | > 10 | 4 (≈ 1.64 µg/mL) | inactive
14 | NNC(=O)c1ccncc1 [ISONIAZID] |  |  |  |  |  | 0.5 (≈ 0.0686 µg/mL) | 
15 | Nc1ncnc2c1c(-c1ncc[nH]1)cn2[C@@H]1O[C@H](CO)[C@@H](O)[C@H]1O | 1.48 | 0.15 | 19 | > 20 | > 3 | > 250 | inactive
16 | CSc1ccc(-c2cn([C@@H]3O[C@H](CO)[C@@H](O)[C@H]3O)c3ncnc(N)c23)cc1 | 18 | 45.6 |  |  | > 10 | 4 (≈ 1.55 µg/mL) | inactive
17 | Nc1ncnc2c1c(-c1ccsc1)cn2[C@@H]1O[C@H](CO)[C@@H](O)[C@H]1O | 12.9 | 42.5 | 2 |  | 6.6 | 8 (≈ 2.79 µg/mL) | inactive

— ChEMBL document CHEMBL3352218, “Structural basis for inhibition of mycobacterial and human adenosine kinase by 7-substituted 7-(Het)aryl-7-deazaadenine ribonucleosides” (J Med Chem, 2014)
